Here are results for 6 compounds from patent EP3829579B1, “1,3,8-TRIAZASPIRO COMPOUNDS AND THEIR USE AS MEDICAMENTS FOR THE TREATMENT OF REPERFUSION INJURY” (Maria Cecilia Hospital S.p.A., priority 2018, dated 2020).

Data set [1] has as its system mPTP. The data set is described as follows: mitochondrial swelling assay (absorbance at 540 nm, Ca2+ stimulation). In kind it is biochemical. The settings on record: mitochondria isolated from mouse liver, monitored for 10 minutes. The text has this:
The data were obtained by recording the absorbance changes at 540 nm at the tenth minute of measurement, and subsequently converted to a percentage. Black bar: untreated and unstimulated mitochondria; black control bar: untreated and Ca2+ stimulated mitochondria; dark grey bar: pre-treatment with CsA and stimulation with Ca2+; light bar: pre-treatment with RR and stimulation with Ca2+; first white bar from the top: treatment with compound 1 and stimulation with Ca2+; white bars: pre-treatment with the compounds of the invention and stimulation with Ca2+. […] The subcellular localization of compound 1 was studied by HPLC-HRMS analysis of samples from different cellular compartments, before and after treatment with the compound. […] The grey region of the HPLC spectrum corresponds to a single mass peak at [M+1]+ m/z of 386.1534 (lower panel, [M+H]+ calculated for compound 1 = 386.1533). […] The grey band of the HPLC spectrum corresponds to a mixture of mass peaks detected through the HRMS analysis (lower panel). C: HPLC-HRMS profile of the mitochondrial fraction isolated from cells pre-treated with compound 1 which clearly indicates the presence of the compound with an HPLC band at a retention time of 8.2 min (upper panel). The grey area of the signal corresponds to a mixture of mass peaks (lower panel) among which [M+1]+ m/z of 386.1534, which identifies the undetectable compound 1 in the corresponding untreated fraction (panel B). […] A: Content of mitochondrial ATP in living cells under basal conditions, evaluated based on the luciferase-luciferin protocol. B: Mitochondrial ATP production following stimulation by a Ca2+ dependent agonist. "Histamine" indicates stimulus with histamine. C: MTT cell viability assay after 24h, 48h and 72h of treatment of live cells with compounds of Formula (I) at different concentrations. In particular, black bar: cells treated with vehicle; dotted bars: compound at the concentration of 1 µM; bars with small black and white squares: compound at a concentration of 5 µM; bars with large black and white squares: compound at a concentration of 10 µM. A standardization was carried out with respect to the vehicle. […] A: Diagram depicting an experiment on an isolated rat heart by the Langendorff system. B: Coronary artery perfusion pressure (CPP) recorded on rat heart in conditions of stabilization, ischemia and reperfusion. C: Pressure developed by the left ventricle (LVPdp) recorded under the same conditions as B. D: End-diastolic pressure recorded in the same conditions as B and C. […]
Mitochondria isolated from mouse liver were checked for purity (Figure 3A) and functionality thereof, and then stimulated with Ca^2+; the decrease in absorbance at 540 nm, indicative of mitochondrial swelling, was monitored for 10 minutes.

In data set [2] the test system is live cells. The data set is described as follows: MTT cell viability assay. Format: cell-based. The settings on record: micromolar concentrations (1, 5, 10 µM); for reduction of MTT compared to the control: 24h and 48h; for effect on cell viability (MTT): after 72h. The text has this:
(§1) The data were obtained by recording the absorbance changes at 540 nm at the tenth minute of measurement, and subsequently converted to a percentage. Black bar: untreated and unstimulated mitochondria; black control bar: untreated and Ca2+ stimulated mitochondria; dark grey bar: pre-treatment with CsA and stimulation with Ca2+; light bar: pre-treatment with RR and stimulation with Ca2+; first white bar from the top: treatment with compound 1 and stimulation with Ca2+; white bars: pre-treatment with the compounds of the invention and stimulation with Ca2+. […] The subcellular localization of compound 1 was studied by HPLC-HRMS analysis of samples from different cellular compartments, before and after treatment with the compound. […] The grey region of the HPLC spectrum corresponds to a single mass peak at [M+1]+ m/z of 386.1534 (lower panel, [M+H]+ calculated for compound 1 = 386.1533). […] The grey band of the HPLC spectrum corresponds to a mixture of mass peaks detected through the HRMS analysis (lower panel). C: HPLC-HRMS profile of the mitochondrial fraction isolated from cells pre-treated with compound 1 which clearly indicates the presence of the compound with an HPLC band at a retention time of 8.2 min (upper panel). The grey area of the signal corresponds to a mixture of mass peaks (lower panel) among which [M+1]+ m/z of 386.1534, which identifies the undetectable compound 1 in the corresponding untreated fraction (panel B). […] A: Content of mitochondrial ATP in living cells under basal conditions, evaluated based on the luciferase-luciferin protocol. B: Mitochondrial ATP production following stimulation by a Ca2+ dependent agonist. "Histamine" indicates stimulus with histamine. C: MTT cell viability assay after 24h, 48h and 72h of treatment of live cells with compounds of Formula (I) at different concentrations. […] B: Coronary artery perfusion pressure (CPP) recorded on rat heart in conditions of stabilization, ischemia and reperfusion. C: Pressure developed by the left ventricle (LVPdp) recorded under the same conditions as B. D: End-diastolic pressure recorded in the same conditions as B and C. […]
(§2) Compounds 5c, 6g and 10 resulted to be very potent in inhibiting mPTP in the in vitro tests. In order to identify any side effects in the use of these compounds in living cells that could exclude their future development in therapy, and given the crucial role of the C subunit of the ATP synthase in energy production, two important parameters were evaluated, such as cell viability and mitochondrial ATP content, in basal conditions and following Ca^2+-dependent stimulus (Figure 5A-C).

In data set [3] the test system is ATP synthesis. The data set can be described thus: luciferin-luciferase assay of mitochondrial ATP. Format: cell-based. The note with it: living cells, basal conditions and following Ca2+-dependent stimulus.
Excerpt: The data were obtained by recording the absorbance changes at 540 nm at the tenth minute of measurement, and subsequently converted to a percentage. Black bar: untreated and unstimulated mitochondria; black control bar: untreated and Ca2+ stimulated mitochondria; dark grey bar: pre-treatment with CsA and stimulation with Ca2+; light bar: pre-treatment with RR and stimulation with Ca2+; first white bar from the top: treatment with compound 1 and stimulation with Ca2+; white bars: pre-treatment with the compounds of the invention and stimulation with Ca2+. […] The subcellular localization of compound 1 was studied by HPLC-HRMS analysis of samples from different cellular compartments, before and after treatment with the compound. […] The grey region of the HPLC spectrum corresponds to a single mass peak at [M+1]+ m/z of 386.1534 (lower panel, [M+H]+ calculated for compound 1 = 386.1533). […] The grey band of the HPLC spectrum corresponds to a mixture of mass peaks detected through the HRMS analysis (lower panel). C: HPLC-HRMS profile of the mitochondrial fraction isolated from cells pre-treated with compound 1 which clearly indicates the presence of the compound with an HPLC band at a retention time of 8.2 min (upper panel). The grey area of the signal corresponds to a mixture of mass peaks (lower panel) among which [M+1]+ m/z of 386.1534, which identifies the undetectable compound 1 in the corresponding untreated fraction (panel B). […] A: Content of mitochondrial ATP in living cells under basal conditions, evaluated based on the luciferase-luciferin protocol. B: Mitochondrial ATP production following stimulation by a Ca2+ dependent agonist. "Histamine" indicates stimulus with histamine. C: MTT cell viability assay after 24h, 48h and 72h of treatment of live cells with compounds of Formula (I) at different concentrations. In particular, black bar: cells treated with vehicle; dotted bars: compound at the concentration of 1 µM; bars with small black and white squares: compound at a concentration of 5 µM; bars with large black and white squares: compound at a concentration of 10 µM. A standardization was carried out with respect to the vehicle. […] A: Diagram depicting an experiment on an isolated rat heart by the Langendorff system. B: Coronary artery perfusion pressure (CPP) recorded on rat heart in conditions of stabilization, ischemia and reperfusion. C: Pressure developed by the left ventricle (LVPdp) recorded under the same conditions as B. D: End-diastolic pressure recorded in the same conditions as B and C. E: TUNEL apoptotic assay for the evaluation of the cardioprotective effect in cardiomyocytes of the heart.**:p value<0.01; ****:p value<0.0001.
as §2

Data set [4] has as its system release of cytochrome C (Cyt.C) from the mitochondria. The data set can be described thus: detection of cytochrome c in the mitochondrial fraction under Ca2+-dependent stress. In kind it is cell-based. The settings on record: Ca2+-dependent stress conditions.
The subject of data set [5] is rat isolated heart. The data set is described as follows: isolated rat heart ischemia-reperfusion (Langendorff system), with TUNEL assay. Format: in vivo. The settings on record: ex vivo.
Excerpt: as §1
Considering the potential of the inhibitors claimed herein in relation to: i) ability to desensitize the opening of mPTP; ii) ability to protect against cell death by inhibiting the release of Cyt.C; iii) ability to preserve cell viability, and iv) mitochondrial ATP content, the effects of compound 10 were studied in an animal model of cardiac ischemia-reperfusion. […] At the end of the procedure, the hearts were also analyzed for cell death by terminal deoxynucleotidyl transferase dUTP nick-end labelling (TUNEL) assay.

Data set [6] concerns mPTP. The data set can be described thus: cobalt-calcein assay of Ca2+-induced mPTP opening in HeLa cells (ionomycin stimulation). Format: cell-based. The settings on record: pre-treatment 1 µM, assessed by the kinetics slope.
Data set [7] in a line: subcellular fractionation with HPLC-HRMS detection (subcellular localization). In kind it is cell-based. The settings on record: cells pre-treated with compound, mitochondria, cytosol and endoplasmic reticulum fractions. The source says:
The data were obtained by recording the absorbance changes at 540 nm at the tenth minute of measurement, and subsequently converted to a percentage. Black bar: untreated and unstimulated mitochondria; black control bar: untreated and Ca2+ stimulated mitochondria; dark grey bar: pre-treatment with CsA and stimulation with Ca2+; light bar: pre-treatment with RR and stimulation with Ca2+; first white bar from the top: treatment with compound 1 and stimulation with Ca2+; white bars: pre-treatment with the compounds of the invention and stimulation with Ca2+. […] The grey region of the HPLC spectrum corresponds to a single mass peak at [M+1]+ m/z of 386.1534 (lower panel, [M+H]+ calculated for compound 1 = 386.1533). […] The grey band of the HPLC spectrum corresponds to a mixture of mass peaks detected through the HRMS analysis (lower panel). […] A: Content of mitochondrial ATP in living cells under basal conditions, evaluated based on the luciferase-luciferin protocol. […] B: Coronary artery perfusion pressure (CPP) recorded on rat heart in conditions of stabilization, ischemia and reperfusion. C: Pressure developed by the left ventricle (LVPdp) recorded under the same conditions as B. D: End-diastolic pressure recorded in the same conditions as B and C. […]

[8] abbreviates: 10 µM constant-volume perfusion during the first 10 minutes of reperfusion, 30 minutes ischemia, 1 hour reperfusion.

Take `N.N.N.N.N.N.N.N.N.N.N.N.N.N.[Cl-].[Cl-].[Cl-].[Cl-].[Cl-].[Cl-].[O-2].[O-2].[Ru+3].[Ru+3].[Ru+4]` [RR, Red Ruthenium, reference compound]: in data set [1], the “inhibition of Ca2+-induced mPTP opening (mitochondrial swelling, decrease in absorbance at 540 nm)” value was “prevented”.
Consider `O=C1N=CN(c2ccc(Cl)cc2)C12CCN(Cc1ccccc1)CC2` [compound 5c, 8-benzyl-1-(4-chlorophenyl)-1,3,8-triazaspiro[4.5]dec-2-en-4-one], for which the “inhibition of Ca2+-induced mPTP opening (mitochondrial swelling, decrease in absorbance at 540 nm)” value in data set [1] is recorded as “significantly more performing than compound 1”. Moreover, in data set [2], the “reduction of MTT compared to the control” value is recorded as “did not induce a significant reduction” and the “effect on cell viability (MTT)” value is “some negative effect”. Besides, in data set [3], the “proton flow and ATP synthesis / ATP levels” value is given as “did not reduce ATP levels”. Moreover, the “release of Cyt.C from the mitochondria” value in data set [4] was “prevent the release of Cyt.C”.
Take `O=C1NCN(c2ccccc2)C12CCN(S(=O)(=O)c1ccc(Cl)s1)CC2` [compound 10, 8-((5-chlorotiophen-2-yl)sulfonyl)-1-phenyl-1,3,8-triazaspiro[4.5]decan-4-one]: in data set [1], the “inhibition of Ca2+-induced mPTP opening (mitochondrial swelling, decrease in absorbance at 540 nm)” value is reported as “significantly more performing than compound 1”. Also, in data set [2], the “reduction of MTT compared to the control” value was “did not induce a significant reduction” and the “effect on cell viability (MTT)” value is “some negative effect”. The “proton flow and ATP synthesis / ATP levels” value in data set [3] is reported as “did not reduce ATP levels”. For the same compound, the “release of Cyt.C from the mitochondria” value in data set [4] is on record as “prevent the release of Cyt.C”. Besides, in data set [5] (setting [8]), the “coronary perfusion pressure (CPP)” value is on record as “decrease”, the “diastolic pressure (EDP)” value is “decrease” and the “diastolic pressure of the left ventricle (LVEDP)” value is listed as “increased”. Besides, in data set [5] (10µM, hearts at the end of the procedure, 64% positive without compound), the “percentage of cardiomyocytes positive for TUNEL (apoptotic)” value is listed as “significantly reduced”.
Consider `CC[C@H]1/C=C/C=C/C[C@@H](C)[C@H](O)[C@@](C)(O)C(=O)[C@@H](C)[C@H](O)[C@@H](C)C(=O)[C@@H](C)[C@H](O)[C@@H](C)/C=C/C(=O)O[C@@H]2[C@H](C)[C@H](CC1)O[C@]1(CC[C@H](C)[C@H](C[C@@H](C)O)O1)[C@H]2C` [Oligomycin, reference compound], for which the “proton flow and ATP synthesis / ATP levels” value in data set [3] is “significantly inhibited”.
Turning to `Cc1ccc(S(=O)(=O)N2CCC3(CC2)C(=O)NCN3c2ccccc2)cc1` [compound 1, 1-phenyl-8-tosyl-1,3,8-triazaspiro[4.5]decan-4-one], the “desensitization of the mPTP opening” value in data set [6] is recorded as “about 50%”. Also, the subcellular localization result in data set [7] is recorded as “selective accumulation of the compound in the mitochondria”. In addition, the “proton flow and ATP synthesis / ATP levels” value in data set [3] is recorded as “significantly inhibited”.
In the case of `O=C1NCN(c2cccc(C(F)(F)F)c2)C12CCN(Cc1ccccc1)CC2` [compound 6g, 8-benzyl-1-(3-(trifluoromethyl)phenyl)-1,3,8-triazaspiro[4.5]decan-4-one], the “inhibition of Ca2+-induced mPTP opening (mitochondrial swelling, decrease in absorbance at 540 nm)” value in data set [1] is reported as “significantly more performing than compound 1”. Also, in data set [3], the “proton flow and ATP synthesis / ATP levels” value is recorded as “did not reduce ATP levels”. In data set [4], the “release of Cyt.C from the mitochondria” value was “prevent the release of Cyt.C”.
